Test results taken from patent publication US8691846B2, “Piperidine sulphonamide derivatives” (Hoffmann-La Roche, Inc., priority 2008, dated 2014).
Like-named read-outs stand apart in the source and are kept apart here.

Target: T1, human orexin-2 (hOX2) receptors (Homo sapiens, UniProt O43614)
T1 construct: expressed in transfected cells
T1 sequence (O43614 1-444): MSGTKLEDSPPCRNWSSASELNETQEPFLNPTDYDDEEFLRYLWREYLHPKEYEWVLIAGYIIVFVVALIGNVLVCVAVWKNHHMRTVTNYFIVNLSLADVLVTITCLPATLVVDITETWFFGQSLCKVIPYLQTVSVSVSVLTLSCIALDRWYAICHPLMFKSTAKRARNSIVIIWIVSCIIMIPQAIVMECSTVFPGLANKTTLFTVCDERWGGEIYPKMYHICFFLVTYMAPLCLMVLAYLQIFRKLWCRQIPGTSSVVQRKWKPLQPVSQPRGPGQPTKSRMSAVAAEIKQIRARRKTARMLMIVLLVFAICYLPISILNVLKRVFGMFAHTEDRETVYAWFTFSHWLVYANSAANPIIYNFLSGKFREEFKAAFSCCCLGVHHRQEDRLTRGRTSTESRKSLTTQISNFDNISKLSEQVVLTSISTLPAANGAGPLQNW
Test: Intracellular Ca2+ mobilization assay (FLIPR), antagonism of orexin-A in CHO(dHFr-) cells expressing hOX2
Type: cell-based
Settings: CHO(dHFr-)-OX2R cells, orexin-A at EC80 as agonist, Kb=IC50/(1+[A]/EC50)
Description: Intracellular Ca^2+ Mobilization Assay
The Chinese Hamster Ovary (dHFr−) mutant cell line stably expressing human orexin-1 (hOX1) or human orexin-2 (hOX2) receptors were maintained in Dulbecco's Modified Eagle Medium (1×) with GlutaMax™ 1, 4500 mg/L D-Glucose and Sodium Pyruvate (Catalog No. 31966-021, Invitrogen, Carlsbad, Calif.), 5% dialyzed fetal calf serum (Catalog No. 26400-044), 100 μg/ml penicillin and 100 μg/ml streptomycin. The cells were seeded at 5×10^4 cells/well in the poly-D-lysine treated, 96-well, black/clear-bottomed plates (Catalog No. BD356640, BD Biosciences, Palo Alto, Calif.). 24 h later, the cells were loaded for 1 h at 37° C. with 4 μM Flou-4 acetoxymethyl ester (Catalog No. F-14202, Molecular Probes, Eugene, Oreg.) in FLIPR buffer (1×HBSS, 20 mM HEPES, 2.5 mM Probenecid). Hanks' Balanced Salt Solution (HBSS) (10×) (catalog No. 14065-049) and HEPES (1M) (catalog No. 15630-056) were purchased from Invitrogen, Carlsbad, Calif. Probenecid (250 mM) (catalog No. P8761) was from Sigma, Buchs, Switzerland. The cells were washed five times with FLIPR buffer to remove excess dye and intracellular calcium mobilization, [Ca^2′]I were measured using a Fluorometric Imaging Plate Reader (FLIPR-96, Molecular Devices, Menlo Park, Calif.) as described previously (Malherbe et al., Mol. Pharmacol., 64, 823-832, 2003). Orexin A (catalog No. 1455, Toris Cookson Ltd, Bristol, UK) was used as agonist. Orexin A (50 mM stock solution in DMSO) was diluted in FLIPR buffer+0.1% BSA. The EC50 and EC80 values of orexin-A were measured daily from standard agonist concentration-response curves in CHO(dHFr−)-OX1R and -OX2R cell lines. All compounds were dissolved in 100% DMSO Inhibition curves were determined by addition of 11 concentrations (0.0001-10 μM) of inhibitory compounds and using EC80 value of orexin-A as agonist (a concentration which gave 80% of max agonist response, determined daily). The antagonists were applied 25 min (incubation at 37° C.) before the application of the agonist. Responses were measured as peak increase in fluorescence minus basal, normalized to the maximal stimulatory effect induced by EC80 value of orexin-A or orexin-B Inhibition curves were fitted according to the Hill equation: y=100/(1+(x/IC50)^nH), where nH=slope factor using Excel-fit 4 software (Microsoft).
Kb values were calculated according to the following equation Kb=IC50/(1+[A]/EC50) where A is the concentration of agonist added which is very close to agonist EC80 value, and IC50 and EC50 values were derived from the antagonist inhibition and orexin-A or B agonist curves, respectively.

| Structure (SMILES) | Kb (read-out: Kb (μM) OX2R (human)) [µM] | Kb (Table 1, read-out: Kb hOx2) [µM] |
| --- | --- | --- |
| O=C(C1CCCN(S(=O)(=O)c2ccccc2Cl)C1)N1CCCC1c1ccc(F)cc1 (centres unmarked) [Example 3, [1-(2-Chloro-benzenesulfonyl)-piperidin-3-yl]-[2-(4-fluoro-phenyl)-pyrrolidin-1-yl]-methanone] | 0.0788 |  |
| O=C(C1CCCN(S(=O)(=O)c2ccccc2Cl)C1)N1CCCCC1c1ccccc1 (centres unmarked) [Example 4, [1-(2-Chloro-benzenesulfonyl)-piperidin-3-yl]-(2-phenyl-piperidin-1-yl)-methanone] |  | 0.118 |
| O=C(C1CCCN(S(=O)(=O)c2cccc(Cl)c2)C1)N1CCCCC1c1ccccc1 (centres unmarked) [Example 5, [1-(3-Chloro-benzenesulfonyl)-piperidin-3-yl]-(2-phenyl-piperidin-1-yl)-methanone] |  | 0.55 |
| O=C(C1CCCN(S(=O)(=O)c2ccc(F)cc2)C1)N1CCCCC1c1ccccc1 (centres unmarked) [Example 6, [1-(4-Fluoro-benzenesulfonyl)-piperidin-3-yl]-(2-phenyl-piperidin-1-yl)-methanone] |  | 0.756 |
| O=C(C1CCCN(S(=O)(=O)c2ccccc2Cl)C1)N1CCCC1c1ccccc1 (centres unmarked) [Example 7, [1-(2-Chloro-benzenesulfonyl)-piperidin-3-yl]-(2-phenyl-pyrrolidin-1-yl)-methanone] | 0.02 |  |
| O=C(C1CCCN(S(=O)(=O)c2cccc(Cl)c2)C1)N1CCCC1c1ccccc1 (centres unmarked) [Example 8, [1-(3-Chloro-benzenesulfonyl)-piperidin-3-yl]-(2-phenyl-pyrrolidin-1-yl)-methanone] | 0.0219 |  |
| COc1cccc(S(=O)(=O)N2CCCC(C(=O)N3CCCC3c3ccccc3)C2)c1 (centres unmarked) [Example 9, [1-(3-Methoxy-benzenesulfonyl)-piperidin-3-yl]-(2-phenyl-pyrrolidin-1-yl)-methanone] |  | 0.122 |
| COc1ccccc1S(=O)(=O)N1CCCC(C(=O)N2CCCCC2c2ccccc2)C1 (centres unmarked) [Example 10, [1-(2-Methoxy-benzenesulfonyl)-piperidin-3-yl]-(2-phenyl-piperidin-1-yl)-methanone] | 0.0226 |  |
| COc1ccccc1S(=O)(=O)N1CCCC(C(=O)N2CCCC2c2ccccc2)C1 (centres unmarked) [Example 11, [1-(2-Methoxy-benzenesulfonyl)-piperidin-3-yl]-(2-phenyl-pyrrolidin-1-yl)-methanone] | 0.0053 |  |
| O=C(C1CCCN(S(=O)(=O)c2ccccc2)C1)N1CCCCC1c1ccccc1 (centres unmarked) [Example 12, (1-Benzenesulfonyl-piperidin-3-yl)-(2-phenyl-piperidin-1-yl)-methanone] |  | 0.309 |
| O=C(C1CCCN(S(=O)(=O)c2ccc(F)cc2)C1)N1CCCC1c1ccccc1 (centres unmarked) [Example 13, [1-(4-Fluoro-benzenesulfonyl)-piperidin-3-yl]-(2-phenyl-pyrrolidin-1-yl)-methanone] |  | 0.334 |
| COc1ccc(Cl)cc1S(=O)(=O)N1CCCC(C(=O)N2CCCC2c2ccccc2)C1 (centres unmarked) [Example 14, [1-(5-Chloro-2-methoxy-benzenesulfonyl)-piperidin-3-yl]-(2-phenyl-pyrrolidin-1-yl)-methanone] | 0.0138 |  |
| O=C(C1CCCN(S(=O)(=O)c2ccccc2)C1)N1CCCC1c1ccccc1 (centres unmarked) [Example 15, (1-Benzenesulfonyl-piperidin-3-yl)-(2-phenyl-pyrrolidin-1-yl)-methanone] |  | 0.258 |
| COc1ccc(Cl)cc1S(=O)(=O)N1CCCC(C(=O)N2CCCCC2c2ccccc2)C1 (centres unmarked) [Example 16, [1-(5-Chloro-2-methoxy-benzenesulfonyl)-piperidin-3-yl]-(2-phenyl-piperidin-1-yl)-methanone] | 0.0592 |  |
| O=C(C1CCCN(S(=O)(=O)c2ccccc2Cl)C1)N1CCCC1c1ccccc1Cl (centres unmarked) [Example 17, [1-(2-Chloro-benzenesulfonyl)-piperidin-3-yl]-[2-(2-chloro-phenyl)-pyrrolidin-1-yl]-methanone] | 0.0113 |  |
| O=C(C1CCCN(S(=O)(=O)c2ccccc2Cl)C1)N1CCCC1c1ccc(Cl)c(Cl)c1 (centres unmarked) [Example 18, [1-(2-Chloro-benzenesulfonyl)-piperidin-3-yl]-[2-(3,4-dichloro-phenyl)-pyrrolidin-1-yl]-methanone] |  | 0.75 |
| O=C(C1CCCN(S(=O)(=O)c2ccccc2Cl)C1)N1CCCC1c1cc(Cl)cc(Cl)c1 (centres unmarked) [Example 19, [1-(2-Chloro-benzenesulfonyl)-piperidin-3-yl]-[2-(3,5-dichloro-phenyl)-pyrrolidin-1-yl]-methanone] |  | 0.67 |
